Laboratory results as given in patent US11286268B1, “EIF4E-inhibiting compounds and methods” (EFFECTOR THERAPEUTICS, INC., priority 2019, dated 2022).
Like-named read-outs stand apart in the source and are kept apart here.

Biological target: recombinant eIF4E (Homo sapiens (Human), UniProt P06730)
Experiment: Fluorescence polarization competition assay for eIF4E binding potency
Method in brief: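 Competitive displacement format: compounds compete with a fluorescent m7GDP tracer (20 nM) for 75 nM recombinant eIF4E. Incubation is 30 min at room temperature, protected from light, with 1% DMSO. Polarization read gives IC50 over eight 3-fold concentrations.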

[1] = fluorescence polarization competition, 75 nM recombinant eIF4E, 20 nM EDA-m7GDP-ATTO-550, IC50 class, read-out: elF4E FP
[2] = inhibition of eIF4E/EDA-m7GDP-ATTO-550 binding by 50%, Table 4B calculated values, read-out: IC50
[3] = inhibition of eIF4E/EDA-m7GDP-ATTO-550 binding, calculated IC50 values, Table 4B, read-out: IC50

Chain of recombinant eIF4E (P06730 whole entry): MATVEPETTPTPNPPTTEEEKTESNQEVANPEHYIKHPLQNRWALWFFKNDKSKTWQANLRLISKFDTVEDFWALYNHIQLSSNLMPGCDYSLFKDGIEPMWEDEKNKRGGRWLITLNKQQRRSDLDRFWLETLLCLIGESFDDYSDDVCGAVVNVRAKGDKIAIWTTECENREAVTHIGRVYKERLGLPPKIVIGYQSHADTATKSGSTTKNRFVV

In the case of `Cc1cc(-c2ncc3nc(C)n(CCOc4ccc(Cl)cc4-c4cc(C)nc5c(C(=O)O)csc45)c(=O)c3c2C#N)cc(C)n1` [compound 873], the IC50 [1] is reported as less than 50 nM and the IC50 [2] is reported as 15.7 nM.

With `Cc1cnc(-c2nc3c(=O)n(CCOc4ccc(Cl)cc4-c4cc(C)nc5c(C(=O)O)csc45)c(C)nc3cc2C(F)(F)F)c(C)n1` [compound 1023] the IC50 [1] was less than 50 nM and the IC50 [2] was 49.8 nM.

With `Cc1nc2cnc(C3CCC(F)(F)CC3)c(C#N)c2c(=O)n1CCOc1ccc(Cl)cc1-c1ccnc2c(C(=O)O)csc12` [compound 260] the IC50 [1] was less than 50 nM and the IC50 [2] was 20.4 nM.

With `Cc1nc2cnc(N3CCC[C@@H]4CN(CC(F)F)CC[C@@H]43)c(C#N)c2c(=O)n1CC#Cc1ccc(Cl)cc1-c1ccnc2c(C(=O)O)csc12` [compound 1544] the IC50 [3] was 13.1 nM.

Molecule `Cc1nc2cnc(N(C)[C@H]3[C@@H]4C[C@H]3CN(CC(C)(F)F)C4)c(C#N)c2c(=O)n1CC#Cc1ccc(Cl)cc1-c1ccnc2c(C(=O)O)csc12` [compound 1577] has an IC50 [3] of 13.3 nM.

In the case of `Cc1nc2cnc(N(C)C3CCN(CC(F)(F)F)CC3)c(C#N)c2c(=O)n1CC#Cc1ccc(Cl)cc1-c1ccnc2c(C(=O)NS(=O)(=O)CC(F)F)csc12` [compound 1539], the IC50 [3] is reported as 12.5 nM.

`Cc1cc(-c2cc(Cl)ccc2OCCn2c(C)nc3cnc(-c4cccc(C(F)(F)F)c4)c(C#N)c3c2=O)c2scc(C(=O)O)c2n1` [compound 951] was tested, and the IC50 [1] was less than 50 nM and the IC50 [2] was 43.6 nM.

`Cc1nc2cc(C(F)(F)F)c(CN3CCC(F)(F)CC3)c(C#N)c2c(=O)n1CCOc1ccc(Cl)cc1-c1ccnc2c(C(=O)O)csc12` [compound 522] gave an IC50 [1] of less than 50 nM and an IC50 [2] of 22.7 nM.

`Cc1nc2cnc(N3CC[N+](CCO)(C(F)F)CC3)c(C#N)c2c(=O)n1CC#Cc1ccc(Cl)cc1-c1ccnc2c(C(=O)O)csc12` [compound 1644] showed an IC50 [3] of 14.5 nM.

For `Cc1nc2cnc(N(C)C3CCN(CC(F)(F)Cl)CC3)c(C#N)c2c(=O)n1CCOc1ccc(Cl)cc1-c1ccnc2c(C(=O)O)csc12` [compound 1441], the IC50 [3] was 29.8 nM.

`Cc1nc2cnc(N3CCN(C4CC4)CC3(C)C)c(C#N)c2c(=O)n1CC#Cc1ccc(Cl)cc1-c1ccnc2c(C(=O)O)csc12` [compound 1102] showed an IC50 [1] of less than 50 nM and an IC50 [2] of 19.2 nM.

`COCCC(CCOC)N(C)c1ncc2nc(C)n(CC#Cc3ccc(Cl)cc3-c3ccnc4c(C(=O)O)csc34)c(=O)c2c1C#N` [compound 1505] was tested, and the IC50 [3] was 13 nM.

Molecule `CCc1cc(-c2cc(Cl)ccc2OCCn2c(C)nc3c(C)nc(-c4ccccc4)c(C#N)c3c2=O)c2scc(C(=O)O)c2n1` [compound 1015] has an IC50 [1] of less than 50 nM and an IC50 [2] of 19.7 nM.

With `Cc1nc2cnc(N3CCN(C)C(CC#N)C3)c(C#N)c2c(=O)n1CCOc1ccc(Cl)cc1-c1ccnc2c(C(=O)O)csc12` (centres unmarked) [compound 1342] the IC50 [3] was 30.4 nM.

`O=C(O)c1cccc(-c2cc(Cl)ccc2OCCn2cnc3ccccc3c2=O)c1` [compound 11] was tested, and the IC50 [1] was greater than 1000 nM and the IC50 [2] was 6850 nM.

Molecule `Cc1nc2ccc(CCN(C)C)c(C#N)c2c(=O)n1CCOc1ccc(Cl)cc1-c1ccc(C(F)(F)F)c2c(C(=O)O)csc12` [compound 578] has an IC50 [1] of less than 50 nM and an IC50 [2] of 32 nM.

In the case of `Cc1nc2cc(C(F)(F)F)c(N3CCN(c4cccnc4)CC3)c(C#N)c2c(=O)n1CCOc1ccc(Cl)cc1-c1cccc(C(=O)O)c1` [compound 380], the IC50 [1] is reported as less than 50 nM and the IC50 [2] is reported as 29.7 nM.

Molecule `Cc1nc2cnc(N(C)[C@H]3CC[C@H](N(CC(F)F)C(C)CO)CC3)c(C#N)c2c(=O)n1CC#Cc1ccc(Cl)cc1-c1ccnc2c(C(=O)O)csc12` (some centres unmarked) [compound 1579] has an IC50 [3] of 30.3 nM.

`Cc1nc2cnc(N3CC4(C3)CN(C3CC(F)(F)C3)C4)c(C#N)c2c(=O)n1CCOc1ccc(Cl)cc1-c1ccnc2c(C(=O)O)csc12` [compound 1475] was tested, and the IC50 [3] was 7.2 nM.

`Cc1nc2cnc(N(C)C3CCN(CC(F)(F)F)CC3)c(C#N)c2c(=O)n1CC#Cc1ccc(Cl)cc1-c1ccnc2c(C(=O)NS(=O)(=O)CC#N)csc12` [compound 1670] gave an IC50 [3] of 5.68 nM.

In the case of `N#Cc1cc(C#N)c2c(=O)n(CCOc3ccc(Cl)cc3-c3cccc(C(=O)O)c3)cnc2c1` [compound 1989], the IC50 [3] is reported as 89 nM.

Work on `N#Cc1cc2c(=O)n(CCOc3ccc(Cl)cc3-c3cc(C(=O)O)c4ccccc4n3)cnc2cn1` [compound 99] yielded an IC50 [1] greater than 1000 nM and an IC50 [2] of 3420 nM.

For `CN1c2cc(C(F)(F)F)cc(C#N)c2C(=O)N(CCOc2ccc(Cl)cc2-c2ccnc3c(C(=O)O)csc23)C1(C)C` [compound 355], the IC50 [1] was 50 to 1000 nM and the IC50 [2] was 146 nM.

`Cc1nc2cnc(N(C)[C@@H]3C[C@@H]4CN(CC(F)F)C[C@@H]4C3)c(C#N)c2c(=O)n1CC#Cc1ccc(Cl)cc1-c1ccnc2c(C(=O)O)csc12` [compound 1531] gave an IC50 [3] of 13.4 nM.

`Cc1cc(-c2cc(Cl)ccc2OCCn2c(C)nc3cc(C(F)F)c(CN4CCN(C)CC4)c(C#N)c3c2=O)c2scc(C(=O)O)c2n1` [compound 646] was tested, and the IC50 [1] was less than 50 nM and the IC50 [2] was 41.4 nM.

`Cc1nc2ccc(C(F)F)c(C#N)c2c(=O)n1CCOc1ccc(Cl)cc1-c1cccc(C(=O)O)c1` [compound 62] was tested, and the IC50 [1] was less than 50 nM and the IC50 [2] was 24.9 nM.

With `Cc1nc2cnc(-c3ccc(CN(C)C)nc3)c(C#N)c2c(=O)n1CCOc1ccc(Cl)cc1-c1ccnc2c(C(=O)O)csc12` [compound 1325] the IC50 [3] was 27.1 nM.

For `CCN(c1ncc2nc(C)n(CC#Cc3ccc(Cl)cc3-c3ccnc4c(C(=O)NS(=O)(=O)CC(F)F)csc34)c(=O)c2c1C#N)C1CCN(C2COC2)CC1` [compound 1745], the IC50 [3] was 11 nM.

`Cc1nc2cc(Cl)c(Cl)c(C#N)c2c(=O)n1C/C=C/c1ccc(Cl)cc1-c1ccnc2c(C(=O)O)csc12` [compound 256] gave an IC50 [1] of 50 to 1000 nM and an IC50 [2] of 104 nM.

For `Cc1nc2cnc(N3CCN(C)C(COC(F)(F)F)C3)c(C#N)c2c(=O)n1CC#Cc1ccc(Cl)cc1-c1ccnc2c(C(=O)O)csc12` (centres unmarked) [compound 1460], the IC50 [3] was 7.99 nM.

`Cc1cc(-c2cc(Cl)ccc2OCCn2c(C)nc3cc(C(F)(F)F)c(-c4nn(C)cc4C)c(C#N)c3c2=O)c2scc(C(=O)O)c2n1` [compound 1027] was tested, and the IC50 [1] was less than 50 nM and the IC50 [2] was 31.5 nM.

With `Cc1nc2cnc(/C=C/CN(C)C)c(C#N)c2c(=O)n1CC#Cc1ccc(Cl)cc1-c1ccnc2c(C(=O)O)csc12` [compound 1498] the IC50 [3] was 29.1 nM.

`Cc1nc2cc(C(F)(F)F)c(N3CCN(C)CC3)c(C#N)c2c(=O)n1CCOc1ccc(Cl)cc1-c1ccnc2c(C(=O)NS(C)(=O)=O)csc12` [compound 1151] showed an IC50 [1] of less than 50 nM and an IC50 [2] of 19 nM.

For `COCc1cc(-c2cc(Cl)ccc2OCCn2c(C)nc3cc(C(F)(F)F)c(CN4CCN(C)CC4)c(C#N)c3c2=O)c2scc(C(=O)O)c2n1` [compound 489], the IC50 [1] was less than 50 nM.

With `Cc1nc2cccc(C#N)c2c(=O)n1CCOc1ccc(Cl)cc1-c1ccnc2c(C(=O)O)csc12` [compound 254] the IC50 [1] was less than 50 nM and the IC50 [2] was 20.4 nM.

For `O=C(O)c1cccc(-c2cc(Cl)ccc2OCCn2cnc3nnccc3c2=O)c1` [compound 18], the IC50 [1] was 50 to 1000 nM and the IC50 [2] was 832 nM.

`Cc1nc2cnc(N3CCN([C@H]4C[C@@H]4C(F)(F)F)CC3)c(C#N)c2c(=O)n1CCOc1ccc(Cl)cc1-c1ccnc2c(C(=O)O)csc12` [compound 1642] was tested, and the IC50 [3] was 24.5 nM.

`Cc1nc2ccc(CCN(C)C)c(C#N)c2c(=O)n1CCOc1ccc(Cl)cc1-c1ccc(C(F)F)c2c(C(=O)O)csc12` [compound 577] was tested, and the IC50 [1] was less than 50 nM and the IC50 [2] was 39.4 nM.

With `CCc1sc2c(-c3cc(Cl)ccc3OCCn3c(C)nc4cc(C(F)(F)F)cc(C#N)c4c3=O)ccnc2c1C(=O)O` [compound 591] the IC50 [1] was less than 50 nM and the IC50 [2] was 44.9 nM.

Work on `Cc1cc(-c2cc(Cl)ccc2OCCn2c(C)nc3cc(C(F)(F)F)c(Br)c(C#N)c3c2=O)c2scc(C(=O)O)c2n1` [compound 876] yielded an IC50 [1] of 50 to 1000 nM and an IC50 [2] of 73.3 nM.

`Cc1cc(-c2cc(Cl)ccc2OCCn2c(C)nc3cnc(C(C)F)c(C#N)c3c2=O)c2scc(C(=O)O)c2n1` (centres unmarked) [compound 1065] gave an IC50 [1] of less than 50 nM and an IC50 [2] of 18.6 nM.

With `Cc1cccc(-c2ncc3nc(C)n(CCOc4ccc(Cl)cc4-c4cc(C)nc5c(C(=O)O)csc45)c(=O)c3c2C#N)c1` [compound 945] the IC50 [1] was less than 50 nM and the IC50 [2] was 38.9 nM.

In the case of `Cc1nc2ccc(S(=O)(=O)NCc3ccccc3)c(C#N)c2c(=O)n1CCOc1ccc(Cl)cc1-c1ccnc2c(C(=O)O)csc12` [compound 252], the IC50 [1] is reported as less than 50 nM and the IC50 [2] is reported as 42 nM.

`Cc1nc2cc(CN(C)C)c(F)c(C#N)c2c(=O)n1CCOc1ccc(Cl)cc1-c1ccnc2c(C(=O)O)csc12` [compound 517] gave an IC50 [1] of less than 50 nM and an IC50 [2] of 35.7 nM.

`Cc1nc2cc(C(F)(F)F)c(N3CCN(C)CC3)c(C#N)c2c(=O)n1CCOc1ccc(Cl)cc1-c1cc(C(=O)O)nc(N(C)C)c1` [compound 1225] was tested, and the IC50 [1] was less than 50 nM and the IC50 [3] was 3.12 nM.

`Cc1nc2cnc(N(C)C3CCN(C)CC3)c(C#N)c2c(=O)n1CCOc1ccc(Cl)cc1-c1ccnc2c(C(=O)O)csc12` [compound 854] gave an IC50 [1] of less than 50 nM and an IC50 [2] of 11.9 nM.

For `Cc1nc2cnc(N(C)C3CCN([C@H]4C[C@H](OC(F)F)C4)CC3)c(C#N)c2c(=O)n1CC#Cc1ccc(Cl)cc1-c1ccnc2c(C(=O)O)csc12` [compound 1135], the IC50 [1] was less than 50 nM and the IC50 [2] was 34.3 nM.

For `Cc1cc(-c2cc(Cl)ccc2OCCn2c(C)nc3cnc(-c4ccccc4C(F)(F)F)c(C#N)c3c2=O)c2scc(C(=O)O)c2n1` [compound 950], the IC50 [1] was less than 50 nM and the IC50 [2] was 17.2 nM.

`Cc1nc2cnc(N(C)C3CCN(C4CC(F)C4)CC3)c(C#N)c2c(=O)n1CC#Cc1ccc(Cl)cc1-c1ccnc2c(C(=O)O)csc12` (centres unmarked) [compound 1181] gave an IC50 [1] of less than 50 nM and an IC50 [2] of 13.7 nM.

In the case of `Cc1nc2cnc(N(C)C3CCN([C@H]4C[C@H](OC(F)F)C4)CC3)c(C#N)c2c(=O)n1CC#Cc1ccc(Cl)cc1-c1ccnc2c(C(=O)NS(=O)(=O)c3cccnc3)csc12` [compound 1765], the IC50 [3] is reported as 12.3 nM.

With `N#Cc1cc(C(F)(F)F)cc2nc(Cl)n(CCOc3ccc(Cl)cc3-c3cccc(C(=O)O)c3)c(=O)c12` [compound 187] the IC50 [1] was less than 50 nM and the IC50 [2] was 48.3 nM.
